# Measurements published in patent US10913714B2, “Pyrrole sulfonyl derivative, preparation method and medical use thereof” (JIANGSU CAREPHAR PHARMACEUTICAL CO., LTD, priority 2015, dated 2021).
# Counter-ions that a name gives are not always drawn. Marks after values point to notes of the source that are not given here.
# Test system: gastric acid secretion induced by histamine
# Test: Gastric acid secretion induced by histamine in pylorus-ligated rats
# Assay type: in vivo
# Details: SD rat; for Total acid content: 2 mg/kg by gavage 1 h before histamine, total acid of 3 h; for Acid inhibiting rate %: 2 mg/kg by gavage, compared with model control
# Description: Test Case 3: Studies on the Effect of EXP 1, TAK-438 and EXP 14 on Gastric Acid Secretion Induced by Histamine Experimental Materials 1) Animals
# SD rat, class SPF, male, 180-220 g; provided by Zhejiang Experimental Animal Center; production permit no.: SCXK (Z) 2014-0001.
# Compound EXP 1, dissolved with a small amount of acetic acid (about 1.10N EXP 1), 0.9% sodium chloride solution to a clear liquid with needed concentration before use.
# >Compound TAK-438, dissolved with 0.9% sodium chloride solution to a clear liquid with needed concentration before use.
# Compound EXP 14, dissolved with a small amount of acetic acid (about 1.10N EXP 14), 0.9% sodium chloride solution to a clear liquid with needed concentration before use.
# Fetching 60 SD rats of class SPF with a weight of 180-220 g; dividing the rats into 5 groups as per weights randomly, including Group EXP 1 (2 mg/kg), Group TAK-438 (2 mg/kg, as per free alkali), Group EXP 14 (2 mg/kg), Group negative control (normal saline of equal volume) and Group model control (normal saline of equal volume); 12 rats per group. Absolute diet for 24 h, water is allowed. After 24 h, administrating drugs to the tested compound groups A, B and C by gavage with a volume of 1 ml/100 g; each group is administered once; the negative control and model negative control groups are administrated by gavage with normal saline of equal volume. Narcotizing the rat with 300 mg/kg of chloral hydrate (1 ml/100 g) and fixing it onto the rat board; cutting to open the abdominal wall along the medioventral line from the mucronate cartilage with an incision of 2-3 cm; slightly pushing the left costal margin upward to expose the stomach in the incision. Ligaturing the pylorus thereunder (leave alone the adjacent blood vessels) and then suturing the abdominal incision. Giving histamine dihydrochloride (30 mg/10 m/kg) hypodermically to the rat 1 h after the tested compound or normal saline are administrated. Choking the rat to death with excessive CO2 3 h after the histamine is given; taking out the stomach and collecting the gastric contents for centrifugation at 3000 rpm/min; adjusting the PH value of the acid fluid to 7.0 with 0.1 mol/L of NaOH titration and then calculating the total acid content of the 3 h. Refer to Table 3 for results.
Structure (SMILES),Total acid content,Acid inhibiting rate %
"CNCc1cc(-c2ccccc2F)n(S(=O)(=O)c2cccc(OCCCOC)c2)c1 [EXP 1, 1-(5-(2-fluorobenzene)-1-((3-(3-methoxypropoxy)phenyl)sulfonyl)-1H-pyrrole-3-yl)-N-methyl methylamine]",0.49 ± 0.12** 10^−4 mol,55.4%
"CNCc1cc(-c2ccccc2F)n(S(=O)(=O)c2cccnc2)c1 [TAK-438, 5-(2-fluorophenyl)-N-methyl-1-(3-pyridylsulfonyl)-1H-pyrrole-3-methamine fumarate]",0.52 ± 0.10** 10^−4 mol,52.3%
